“Also recorded” adds a separate entry of the source.
How the values were obtained:
[1] = test system: subjects with allergic conjunctivitis to grass, tree or ragweed pollen (CAPT); experiment: Phase IIa Conjunctival Allergen Provocation Test (CAPT) study, activity endpoints; format: in vivo, human; conditions: for efficacy in treating allergic conjunctivitis, result in words: clinical trial, topical ocular, four times daily about two weeks
Description: The primary objective of the study is to evaluate the safety and activity of NS2, i.e., compound of structural formula (I), compared to vehicle in the treatment of moderate to severe allergic conjunctivitis in subjects allergic to grass, ragweed or tree allergens following approximately 2 weeks of treatment using the Conjunctival Allergen Provocation Test (CAPT) model.
This double-blind, vehicle-controlled, randomized, parallel group study allows for testing NS2 versus vehicle in subjects with grass, tree or ragweed-induced allergic conjunctivitis in CAPT model. This study consists of 7 or 8 visits to the clinic (a medical screening visit, a titrating CAPT visit, 1 or 2 confirmatory CAPT visits, a CAPT Onset of Action Visit, and three post-2 week dosing CAPT visits) over approximately 9 weeks.
At Visit 4, site staff will update concomitant medications and collect AEs as applicable. Ophthalmic evaluations are conducted (VA, SLE, subject rating of ocular symptoms, and staff grading of conjunctival redness and lid swelling). Subjects must have ocular itching scores of 0 in each eye and conjunctival redness scores of ≤1 in each eye in each region (nasal and temporal) of each eye in order to participate. […] 30 min prior to the CAPT procedure, clinic staff instills one drop of the randomized treatment into each eye. CAPT is then performed using the concentration titration than what reached the positive response at Visit 3 or 3B. Once the CAPT allergen is instilled, subject assessed symptoms and staff assessed signs are collected at 2.5 (+1 min—itching only), 5, 10, 15 min (+2 min), 30, 60, 90, 120, 150, 180 (+5 min). At the end of the visit, subjects are instructed and dispensed their randomized treatment for 2 weeks of at-home qid dosing and their diary card for recording their dosing, AEs, and concomitant medications. Subjects are scheduled to return for Visit 5 in 2 weeks.
(§1) At Visit 5, site staff will update concomitant medications and collect AEs as applicable. Ophthalmic evaluations are conducted (VA, SLE, subject rating of ocular symptoms, and staff grading of conjunctival redness and lid swelling). Approximately 10 μL of basal tears is collected from both eyes for cytokine analysis prior to drug instillation and CAPT. 30 min prior to the CAPT procedure, clinic staff instills one drop of the randomized treatment into each eye. CAPT is then performed using the concentration titration than what reached the positive response at Visit 3 or 3B. Once the CAPT allergen is instilled, subject assessed symptoms and staff assessed signs are collected at 2.5 (+1 min—itching only), 5, 10, 15 min (+2 min), 30, 60, 90, 120, 150, 180 min (+5 min). Following CAPT instillation, tear collection is begun at the 35 min (+15 min) mark, and approximately 10 μL of basal tears is collected from both eyes.
as §1, with “Visit 6,” for “Visit 5,”, “swelling).” for “swelling). Approximately 10 μL of basal tears is collected from both eyes for cytokine analysis prior to drug instillation and CAPT.”, “min).” for “min). Following CAPT instillation, tear collection is begun at the 35 min (+15 min) mark, and approximately 10 μL of basal tears is collected from both eyes.”
At Visit 7, site staff will update concomitant medications and collect AEs as applicable. Ophthalmic evaluations are conducted (VA, SLE, subject rating of ocular symptoms, and staff grading of conjunctival redness and lid swelling). 30 min prior to the CAPT procedure, clinic staff instills one drop of the randomized treatment into each eye. CAPT is then performed using the concentration titration than what reached the positive response at Visit 3 or 3B. […]

[2] = test system: subjects with allergic conjunctivitis; experiment: Phase IIa CAPT study, safety and tolerability; format: in vivo, human
Description: Clinical Study Endpoints—Safety Endpoints: (1) number and severity of local and systemic reactions, and other adverse reactions; (2) vital signs; (3) slit lamp examination; (4) visual acuity; (5) non-contact tonometry; and (6) fundus examination.
Study Products and Randomization. For study purposes, NS2 0.5% and NS2 0.0% are both referred to as study drug. NS2 is formulated in eye drops for topical ocular use. The drug product is supplied as single dose unpreserved eye drops at an NS2 concentration of 0.5% (w/v). The formulation is 9.5% sulfobutylether-β-cyclodextrin (SBE-β-CD) in sterile water for injection buffered with sodium phosphate, dibasic and monobasic, and pH adjusted to 7.3.
Dose Administration. NS2 ophthalmic drops (0.5%) or NS2 ophthalmic drops (0.0%) Vehicle are provided as single use blow fill vials. One drop is instilled into each eye four times daily for approximately […].
Adverse Events. An adverse event (AE) is defined as any untoward medical occurrence associated with the use of a drug in humans, whether or not considered drug related. Disease signs, symptoms, and/or laboratory abnormalities already existing prior to the use of the product are not considered AEs after treatment unless they reoccur after the subject has recovered from the pre-existing condition or, in the opinion of the investigator, they represent a clinically significant exacerbation in intensity or frequency. AEs are collected from the time the subject signs the informed consent form until the completion of study. AEs reported prior to dosing are captured and considered non treatment emergent AEs.
Safety Analysis. Safety is evaluated via the following parameters: (a) AEs; (b) Vital signs; (c) Slit lamp examination; (d) Visual acuity; (e) Non-contact tonometry; and (f) Fundus examination.
Cyclodextrin Response in CAPT Model. Cyclodextrin was utilized as vehicle in a Randomized, Parallel, Single-Center, Double-Masked, Vehicle-Controlled Phase II Study to Evaluate the Activity of Study Drug NS2 (i.e., structural formula (I)) Ophthalmic Solution in Subjects with Allergic Conjunctivitis using the Conjunctival Allergen Provocation Test (CAPT). There were initial screening and titrating CAPT visits, followed by confirmatory CAPT visits where the allergen dose which reproducibly causes an ocular allergic reaction was selected. This allergen dose was utilized for the active dosing study phase. A CAPT Onset of Action Visit after a single dose of study drug to each eye on dosing Day 1, Visit 4 (V4), and three post-2 week dosing CAPT visits on active dosing days 14, 15 and 16, V5-7. NS2 and vehicle were dosed 4× daily for 16 days. 100 healthy men and women with at least a 2 year history of allergic conjunctivitis to grass, tree or ragweed pollen were enrolled, randomized 1:1, 50 on NS2 and 50 on vehicle containing cyclodextrin.
The allergic conjunctivitis Phase IIa trial was a randomized, parallel group, double-masked, vehicle-controlled design evaluating the activity of NS2 ophthalmic solution in subjects with allergic conjunctivitis. The trial utilized the Conjunctival Allergen Provocation Test, known as the CAPT, and was conducted at a single center, Inflamax Research in Ontario, Canada, which has considerable experience with the CAPT model.

[3] = CAPT, Day 1 single dose and multiple days dosing, NS2 0.5% vs vehicle (9.5% SBE-β-CD)
[4] = 16 days of dosing four times per day, 50 subjects

Molecule | duration of clinical efficacy following each CAPT challenge ([1]; 3 hours studied after each CAPT challenge) [h] | ocular itching score, result in words [1, 3] | ocular tearing score, result in words [1, 3] | lid swelling, frequency and pattern, result in words ([1]; CAPT, NS2 vs vehicle) | efficacy in treating allergic conjunctivitis, result in words [1] | patients of the drug group who withdrew from the study (stinging) [2, 4] [patients] | patients of the drug group who withdrew from the study (stinging), percent [2, 4] [%] | stinging/burning adverse events reported as moderate ([2]; NS2 group) | frequency of stinging and or burning ([2]; NS2 group vs vehicle) | tolerability, result in words ([2]; topical ocular 0.5%, 4x daily, 16 days) | serious adverse events ([2]; whole study)
CC(C)(O)c1nc2ccc(Cl)cc2cc1N [NS2] | ≥ 3 | statistically significant differences; also recorded: greater effect; also recorded: exceeding one point reductions | statistically significant differences; also recorded: greater effect; also recorded: exceeding one point reductions | appeared similar | greater effect | 2 | 4 | less than 10% | increased frequency | generally well tolerated | no serious adverse events
sulfobutylether-β-cyclodextrin | – | – | – | – | high response rates and significant efficacy | – | – | – | – | – | –

Reference: US10426790B2, “Treatment of allergic eye conditions with cyclodextrins” (Aldeyra Therapeutics, Inc., priority 2016, dated 2019)
